In patent publication US11242334B2, “Heterocyclic compounds as kinase inhibitors, compositions comprising the heterocyclic compound, and methods of use thereof” (JS INNOPHARM (SHANGHAI) LTD, priority 2017, dated 2022):
pIC50: −log10 of the molar value.

Experiments:
human ERK2 = target: T1, human ERK2 (Homo sapiens, UniProt P28482); assay: LanthaScreen TR-FRET enzymatic assay, ERK2; conditions: IC50 values of ERK2 biochemical activity; 5 μM ATP, 400 nM ATF2-GFP substrate
T1 construct: recombinantly expressed as GST-tagged full-length protein purified from E. coli; GST; purchased Invitrogen PV3311; host or cells: E. coli
T1 sequence (P28482 whole entry): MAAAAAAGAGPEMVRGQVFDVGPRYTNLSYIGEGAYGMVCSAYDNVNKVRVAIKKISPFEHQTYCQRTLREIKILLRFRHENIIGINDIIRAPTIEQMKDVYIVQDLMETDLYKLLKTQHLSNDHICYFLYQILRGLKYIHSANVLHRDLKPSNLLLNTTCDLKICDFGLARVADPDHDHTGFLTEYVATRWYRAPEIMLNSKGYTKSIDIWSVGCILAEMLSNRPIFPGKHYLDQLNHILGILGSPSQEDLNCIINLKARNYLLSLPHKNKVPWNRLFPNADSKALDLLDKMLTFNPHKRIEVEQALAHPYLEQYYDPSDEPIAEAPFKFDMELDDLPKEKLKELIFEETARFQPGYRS
Procedure, shortened: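 IC50 values were fitted from percent of DMSO control using a 520/495 nm TR-FRET ratio with terbium anti-pATF2 (pThr71), read after an EDTA stop. The kinase reaction lasted one hour at room temperature, following 15-min compound pre-treatment. It contained 5 μM ATP, 400 nM ATF2-GFP substrate and 20 ng/ml in vitro-activated GST-ERK2.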

Colo205 cell line = assay: Colo205 cell proliferation assay (MTT assay, WST-8 readout); assay type: cell-based; conditions: Homo sapiens; IC50 values of growth inhibition in Colo 205 cells; 72 hours
Procedure, shortened: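 Growth-inhibition IC50 was derived from WST-8 absorbance at 450 nm (2 h development) after 72 h compound exposure at 37° C. Exposure used final 50 μM–0.005 μM compound in 0.5% DMSO. Colo205 cells had been plated at 5,000/well in RPMI-1640 plus 10% FBS and allowed 24 h to attach.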

Cc1cc(-c2n[nH]c3ccc(-c4ccn(Cc5ccc(Br)c(F)c5)c(=O)c4)cc23)ccn1 [Example 69, 1-(4-bromo-3-fluorobenzyl)-4-(3-(2-methylpyridin-4-yl)-1H-indazol-5-yl)pyridin-2(1H)-one]
pIC50 (human ERK2): > 8.00
pIC50 (Colo205 cell line): 6.00 to 6.30

Cc1cc(-c2n[nH]c3ccc(-c4ccn(Cc5cccc(C(F)(F)F)c5)c(=O)c4)cc23)ccn1 [Example 70, 4-(3-(2-methylpyridin-4-yl)-1H-indazol-5-yl)-1-(3-(trifluoromethyl)benzyl)pyridin-2(1H)-one]
pIC50 (human ERK2): > 8.00
pIC50 (Colo205 cell line): 6.00 to 6.30

Cc1cc(-c2n[nH]c3ccc(-c4ccn(Cc5cccc(C#N)c5)c(=O)c4)cc23)ccn1 [Example 71, 3-((4-(3-(2-methylpyridin-4-yl)-1H-indazol-5-yl)-2-oxopyridin-1(2H)-yl)methyl)benzonitrile]
pIC50 (human ERK2): > 8.00
pIC50 (Colo205 cell line): 5.30 to 6.00

Cc1cc(-c2n[nH]c3ccc(-c4ccn(Cc5cc(F)ccc5F)c(=O)c4)cc23)ccn1 [Example 72, 1-(2,5-difluorobenzyl)-4-(3-(2-methylpyridin-4-yl)-1H-indazol-5-yl)pyridin-2(1H)-one]
pIC50 (human ERK2): > 8.00
pIC50 (Colo205 cell line): 6.00 to 6.30

Cc1cc(-c2n[nH]c3ccc(-c4ccn(Cc5cc(F)cc(C(F)(F)F)c5)c(=O)c4)cc23)ccn1 [Example 73, 1-(3-fluoro-5-(trifluoromethyl)benzyl)-4-(3-(2-methylpyridin-4-yl)-1H-indazol-5-yl)pyridin-2(1H)-one]
pIC50 (human ERK2): > 8.00
pIC50 (Colo205 cell line): 6.00 to 6.30

Cc1cc(-c2n[nH]c3ccc(-c4ccn(C(C)c5cc(F)cc(Br)c5)c(=O)c4)cc23)ccn1 (stereo not drawn) [Example 74, 1-(1-(3-bromo-5-fluorophenyl)ethyl)-4-(3-(2-methylpyridin-4-yl)-1H-indazol-5-yl)pyridin-2(1H)-one]
pIC50 (human ERK2): > 8.00
pIC50 (Colo205 cell line): 6.00 to 6.30

Cc1cc(-c2n[nH]c3ccc(-c4ccn(Cc5cccc(Br)c5F)c(=O)c4)cc23)ccn1 [Example 75, 1-(3-bromo-2-fluorobenzyl)-4-(3-(2-methylpyridin-4-yl)-1H-indazol-5-yl)pyridin-2(1H)-one]
pIC50 (human ERK2): > 8.00
pIC50 (Colo205 cell line): 6.00 to 6.30

Cc1cc(-c2n[nH]c3ccc(-c4ccn(Cc5cc(F)c(F)c(F)c5)c(=O)c4)cc23)ccn1 [Example 76, 4-(3-(2-methylpyridin-4-yl)-1H-indazol-5-yl)-1-(3,4,5-trifluorobenzyl)pyridin-2(1H)-one]
pIC50 (human ERK2): > 8.00
pIC50 (Colo205 cell line): 6.00 to 6.30

Cc1cc(-c2n[nH]c3ccc(-c4ccn(Cc5ccc(F)c(C(F)(F)F)c5)c(=O)c4)cc23)ccn1 [Example 77, 1-(4-fluoro-3-(trifluoromethyl)benzyl)-4-(3-(2-methylpyridin-4-yl)-1H-indazol-5-yl)pyridin-2(1H)-one]
pIC50 (human ERK2): > 8.00
pIC50 (Colo205 cell line): ≥ 6.30

Cc1cc(-c2n[nH]c3ccc(-c4ccn(Cc5ccc(F)c(OC(F)(F)F)c5)c(=O)c4)cc23)ccn1 [Example 78, 1-(4-fluoro-3-(trifluoromethoxy)benzyl)-4-(3-(2-methylpyridin-4-yl)-1H-indazol-5-yl)pyridin-2(1H)-one]
pIC50 (human ERK2): 7.30 to 8.00
pIC50 (Colo205 cell line): 5.30 to 6.00

Cc1cc(-c2n[nH]c3ccc(-c4ccn(Cc5cc(F)cc(F)c5)c(=O)c4)cc23)ccn1 [Example 79, 1-(3,5-difluorobenzyl)-4-(3-(2-methylpyridin-4-yl)-1H-indazol-5-yl)pyridin-2(1H)-one]
pIC50 (human ERK2): > 8.00
pIC50 (Colo205 cell line): 6.00 to 6.30

Cc1cc(-c2n[nH]c3ccc(-c4ccn(Cc5cccc(C(F)(F)F)c5F)c(=O)c4)cc23)ccn1 [Example 80, 1-(2-fluoro-3-(trifluoromethyl)benzyl)-4-(3-(2-methylpyridin-4-yl)-1H-indazol-5-yl)pyridin-2(1H)-one]
pIC50 (human ERK2): > 8.00
pIC50 (Colo205 cell line): 5.30 to 6.00

Cc1cc(-c2n[nH]c3ccc(-c4ccn(Cc5cccc(F)c5F)c(=O)c4)cc23)ccn1 [Example 81, 1-(2,3-difluorobenzyl)-4-(3-(2-methylpyridin-4-yl)-1H-indazol-5-yl)pyridin-2(1H)-one]
pIC50 (human ERK2): > 8.00
pIC50 (Colo205 cell line): ≥ 6.30

Cc1cc(-c2n[nH]c3ccc(-c4ccn(Cc5cccc(F)c5N)c(=O)c4)cc23)ccn1 [Example 82, 1-(2-amino-3-fluorobenzyl)-4-(3-(2-methylpyridin-4-yl)-1H-indazol-5-yl)pyridin-2(1H)-one]
pIC50 (human ERK2): > 8.00
pIC50 (Colo205 cell line): 6.00 to 6.30

Cc1cc(-c2n[nH]c3ccc(-c4ccn(Cc5cccc(F)c5NS(C)(=O)=O)c(=O)c4)cc23)ccn1 [Example 83, N-(2-fluoro-6-((4-(3-(2-methylpyridin-4-yl)-1H-indazol-5-yl)-2-oxopyridin-1(2H)-yl)methyl)phenyl)methanesulfonamide]
pIC50 (human ERK2): > 8.00
pIC50 (Colo205 cell line): 5.30 to 6.00

Cn1cc(-c2n[nH]c3ccc(-c4ccn(Cc5ccc(F)c(Cl)c5)c(=O)c4)cc23)cn1 [Example 84, 1-(3-chloro-4-fluorobenzyl)-4-(3-(1-methyl-1H-pyrazol-4-yl)-1H-indazol-5-yl)pyridin-2(1H)-one]
pIC50 (human ERK2): > 8.00
pIC50 (Colo205 cell line): ≥ 6.30

Cn1cc(-c2n[nH]c3ccc(-c4ccn(Cc5cc(Br)ccc5F)c(=O)c4)cc23)cn1 [Example 85, 1-(5-bromo-2-fluorobenzyl)-4-(3-(1-methyl-1H-pyrazol-4-yl)-1H-indazol-5-yl)pyridin-2(1H)-one]
pIC50 (human ERK2): > 8.00
pIC50 (Colo205 cell line): ≥ 6.30

Cn1cc(-c2n[nH]c3ccc(-c4ccn(Cc5cc(F)cc(Br)c5)c(=O)c4)cc23)cn1 [Example 86, 1-(3-bromo-5-fluorobenzyl)-4-(3-(1-methyl-1H-pyrazol-4-yl)-1H-indazol-5-yl)pyridin-2(1H)-one]
pIC50 (human ERK2): > 8.00
pIC50 (Colo205 cell line): ≥ 6.30

Cc1cc(-c2n[nH]c3ccc(-c4ccn(Cc5cccc(F)c5NC(N)=O)c(=O)c4)cc23)ccn1 [Example 87, 1-(2-fluoro-6-((4-(3-(2-methylpyridin-4-yl)-1H-indazol-5-yl)-2-oxopyridin-1(2H)-yl)methyl)phenyl)urea]
pIC50 (human ERK2): > 8.00
pIC50 (Colo205 cell line): < 5.30

CC(=O)Nc1c(F)cccc1Cn1ccc(-c2ccc3[nH]nc(-c4ccnc(C)c4)c3c2)cc1=O [Example 88, N-(2-fluoro-6-((4-(3-(2-methylpyridin-4-yl)-1H-indazol-5-yl)-2-oxopyridin-1(2H)-yl)methyl)phenyl)acetamide]
pIC50 (human ERK2): > 8.00
pIC50 (Colo205 cell line): 5.30 to 6.00

Cc1cc(-c2n[nH]c3ccc(-c4ccn(Cc5ccnc(C(F)(F)F)c5)c(=O)c4)cc23)ccn1 [Example 89, 4-(3-(2-methylpyridin-4-yl)-1H-indazol-5-yl)-1-((2-(trifluoromethyl)pyridin-4-yl)methyl)pyridin-2(1H)-one]
pIC50 (human ERK2): > 8.00
pIC50 (Colo205 cell line): ≥ 6.30

Cn1cc(-c2n[nH]c3ccc(-c4ccn(Cc5cccc(Br)c5)c(=O)c4)cc23)cn1 [Example 90, 1-(3-bromobenzyl)-4-(3-(1-methyl-1H-pyrazol-4-yl)-1H-indazol-5-yl)pyridin-2(1H)-one]
pIC50 (human ERK2): > 8.00
pIC50 (Colo205 cell line): ≥ 6.30

Cn1cc(-c2n[nH]c3ccc(-c4ccn(Cc5cccc(C(F)(F)F)c5)c(=O)c4)cc23)cn1 [Example 91, 4-(3-(1-methyl-1H-pyrazol-4-yl)-1H-indazol-5-yl)-1-(3-(trifluoromethyl)benzyl)pyridin-2(1H)-one]
pIC50 (human ERK2): > 8.00
pIC50 (Colo205 cell line): 6.00 to 6.30

Cn1cc(-c2n[nH]c3ccc(-c4ccn(Cc5cc(F)cc(C(F)(F)F)c5)c(=O)c4)cc23)cn1 [Example 92, 1-(3-fluoro-5-(trifluoromethyl)benzyl)-4-(3-(1-methyl-1H-pyrazol-4-yl)-1H-indazol-5-yl)pyridin-2(1H)-one]
pIC50 (human ERK2): > 8.00
pIC50 (Colo205 cell line): ≥ 6.30
